Experimental data as given in paper PMC10385664, “Projection of Target Drug Particle Size in Oral Formulations Using the Refined Developability Classification System (rDCS)” (Pharmaceutics, 2023).
Values after ≈ are worked out from the molar mass of the structure shown. Like-named read-outs stand apart in the source and are kept apart here.

Tests used:
[1] = Shake-flask equilibrium solubility in FaSSIF V1; type: physicochemical; conditions: for solubility thermodynamic at 24 h: pH 6.5, thermodynamic from solid, FaSSIF V1, pH 6.50 ± 0.05, 37 °C, read-out: CS FaSSIF V1 (thermodynamic solubility)
Experimental: Equilibrium solubilities of the three APIs in FaSSIF V1 were measured with the shake-flask method, following the ICH M9 guideline on BCS-based biowaivers. Briefly, an excess amount of each API was weighed into a 5 mL vial and the assay medium (FaSSIF V1) was added. The resulting suspensions were incubated at 37.0 ± 0.5 °C (Memmert Incubator IN750, Memmert GmbH + Co. KG, Schwabach, Germany) and agitated for 24 h at 25 rpm (LABINCO LD76 Digital Rotary Mixer, Labinco BV, Breda, The Netherlands). At 2, 4, 6 and 24 h, samples were drawn and filtered through Acrodisc 13 mm with 0.45 µm PTFE filters (Pall Corporation, Port Washington, NY, USA) after establishing that adsorption of the APIs onto the filters was less than 5%. Before sampling, the suspensions were checked visually for the presence of solid particles and the pH was measured (Metrohm 780 pH Meter, Metrohm AG, Herisau, Switzerland). All measured pH values were within the specified range of pH 6.50 ± 0.05, so no pH adjustment was necessary. The filtrates were diluted with a 1:1 mixture of ACN and Milli-Q water for analysis using ultra-performance liquid chromatography with UV detection (UPLC-UV).
XRPD patterns of the residual solids were compared to the starting material and literature profiles. A differential scanning calorimetry (DSC) analysis of the input materials was additionally performed. Istradefylline samples were protected from light in all studies using amber vials and aluminum foil to prevent photolysis. The experimental details of the UPLC-UV methods and solid state analyses can be found in Supplementary Materials.
The solubility experiments were performed in triplicate (n = 3) and solubilities are presented as means (± SD). The mean values were used as input for the rDCS and rtarget calculations.
S.2.4. rDCS Standard Investigations: Solubility Studies
Samples from the solubility studies were analyzed with UPLC‐UV analysis. For voriconazole and lemborexant a Waters Acquity UPLC System consisting of a sample manager, a binary solvent manager, and a PDA detector was used (Waters Corporation, Milford, USA). For istradefylline a Waters Acquity UPLC H‐Class System consisting of a sample manager, a quarternary solvent manager, and a PDA detector was used (Waters Corporation, Milford, MA , USA). The chromatograms were recorded and processed using the software Empower® version 3.0. Representative chromatograms for each API are shown in […]
the FaSSIF V1 solubility study were collected and examined using X‐ray powder diffraction (XRPD) analysis to detect solution‐mediated solid state changes. After 24 h, 1 to 5 mg of the residual solid was collected, pl aced on a zero‐background holder and allowed to sit at room temperature for 2 h. […]

[2] = cited from earlier work
[3] = rDCS dissolution rate analysis (kdiss vs kperm) by Rosenberger et al.; conditions: for kdiss: based on IDR, standard particle size 100 µm
From the text: Rosenberger et al. published an equation for kdiss based on the intrinsic dissolution rate (IDR) rather than CS (Equation (9)). Applying the hparticle assumption for larger particles with r0 ≥ 30 µm (hparticle = 30 µm) results in Equation (10). (9) kdiss=kIDR·IDR=3·hdisk/r0^2·ρ·IDR(r0<30 µm, hparticle=r0) (10) kdiss=kIDR·IDR=3·hdisk/r0·hparticle·ρ·IDR(r0≥30 µm, hparticle=30 µm)
In these equations kIDR is the IDR rate constant, which accounts for the solvent kinematic viscosity, rotational speed of the compressed disk, diffusion coefficient, particle size and API density. Therefore, kIDR corrects for differences in experimental conditions that influence the measured IDR value. The ABL thickness of the rotating disk (hdisk) can be estimated according to Equation (11):(11) hdisk=4.98·ν^1/6·D^1/3·RPM^−1/2 where ν is the solvent kinematic viscosity and the stirring rate is expressed as revolutions per minute (RPM). When kdiss is based on the IDR, two modified Dn equations result (Equations (12) and (13)):(12) Dn=3·hdisk/r0^2·ρ·IDR·Tsi(r0<30 µm, hparticle=r0) (13) Dn=3·hdisk/r0·hparticle·ρ·IDR·Tsi(r0≥30 µm, hparticle=30 µm)
The rDCS dissolution rate analysis was conducted according to Rosenberger et al.. For this, kdiss based on the IDR for a standard particle size of 100 µm was calculated (Equation (15)) and compared to kperm (Equation (10)). The kinematic viscosity of the medium (0.00696 cm^2/s), aqueous diffusion coefficient (predicted with ADMET Predictor version 9), stirring rate (100 rpm), initial particle size (100 µm), API density (predicted with ACD/Labs Release 2021.1.2), and measured IDR were used to calculate kdiss. Predicted diffusion coefficients and API densities can be found in Supplementary Materials. The estimated Peff, degree of flatness (1.7) and small intestinal radius (2 cm) were used for the calculation of kperm.

[4] = from estimated Peff, DF 1.7, Rsi 2 cm

SMILES | solubility thermodynamic at 24 h [1] | Literature pKa ([2]; estimated by capillary electrophoresis) | kdiss [3] | kperm [3, 4] | solubility at 24 h ([1]; pH 6.5, Excel template input, FaSSIF V1, read-out: Estimate of intestinal solubility (CS)) | Literature pKa ([2]; basic pKa, triazole moiety, method not disclosed) | kdiss for r = 100 µm ([3]; Excel template) | kperm ([3]; Excel template) | Literature pKa ([2]; basic pKa, method not disclosed)
Cc1ncc(OC[C@@]2(c3cccc(F)c3)C[C@H]2C(=O)Nc2ccc(F)cn2)c(C)n1 [Lemborexant, lemborexant] | 23.3 ± 0.1 µg/mL (≈ 56.8 µM) | <3.50 [33] | 3e-06 s⁻¹ | 0.0214 min⁻¹ | – | – | – | – | –
C[C@@H](c1ncncc1F)[C@](O)(Cn1cncn1)c1ccc(F)cc1F [Voriconazole, voriconazole] | 827 ± 6 µg/mL (≈ 2370 µM) | – | 0.000126 s⁻¹ | 0.0219 min⁻¹ | 827 µg/mL (≈ 2370 µM) | 1.76 ^3 [32] | 0.000126 s⁻¹ | 0.02193 min⁻¹ | –
CCn1c(=O)c2c(nc(/C=C/c3ccc(OC)c(OC)c3)n2C)n(CC)c1=O [Istradefylline, istradefylline] | 3.59 ± 0.05 µg/mL (≈ 9.34 µM) | – | 4.55e-07 s⁻¹ | 0.0238 min⁻¹ | – | – | – | – | 0.78 ^3 [31, 34]
